In US20140186329A1, “POLYPHENOL ANALOGS TO TREAT ISCHEMIA” (priority 2011, published 2014):
Where two headings read alike, the source gives them in different places.

Tests used:
[1] = TEAC, ABTS decolorization assay; details: relative to Trolox
Summary of the method: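 Compound in ethanol added to persulfate-generated ABTS radical cation (OD ~0.7 at 734 nm); absorbance decrease followed at 734 nm for 4 min. TEAC is the slope of percent absorbance inhibition versus concentration divided by the corresponding Trolox slope.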

HT22 cells = test: In vitro ischemia assay (HT22 cell IAA assay, MTT); type: cell-based, mouse; details: for Emax / percent protection from IAA-induced cell death at 0.1 µM: HT-22; for Emax: HT22 Cell IAA assay, read-out: Max Protection; for percent protection from IAA-induced cell death at 0.1 µM: compound 100 nM; for increase of survival over the neuroprotective concentration range / neuroprotective concentration range: 20 μM IAA 2 hr, MTT at 24 hours
Summary of the method: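 Mouse HT22 hippocampal cells in DMEM/7.5% DFCS exposed 2 hr to 20 μM iodoacetic acid with or without derivative, then 20 hr in IAA-free medium still containing derivative. Viability by MTT (2.5 μg/ml, 4 hr, 37 °C), absorbance at 570 nm.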

[2] = Mus musculus, HT-22, HT22 cells, 20 μM IAA for 2 hr, viability after 24 hr by MTT, read-out: EC50 in vitro ischemia
[3] = HT22 cells, 20 μM IAA, read-out: HT22 Cell IAA assay EC50
[4] = Mus musculus, HT-22, HT22 cells, 20 μM IAA, read-out: HT22 Cell IAA assay EC50

SMILES	TEAC [1]	EC50 (HT22 cells; [2]) [nM]	percent protection from IAA-induced cell death at 0.1 µM (HT22 cells; Mus musculus, 20 μM IAA) [%]	EC50 (HT22 cells; [4]) [nM]	further results
Cc1cc2oc(-c3ccc(N(C)C)cc3)c(O)c(=O)c2cc1C [CMS-117, 2-(4-(dimethylamino)phenyl)-3-hydroxy-6,7-dimethyl-4H-chromen-4-one]	3	20			Emax (HT22 cells; Mus musculus): 81%
COc1cc(-c2ccc(O)c(O)c2)nc2ccccc12 [CMS-007, 4-methoxy-2-(3,4-dihydroxyphenyl) quinoline]	0.36	40	71		fold improvement of neuroprotective activity/potency relative to Fisetin (HT22 cells; in vitro ischemia, HT22/IAA): ~75 fold
Oc1ccc(-c2cc(OC3CCCC3)c3ccccc3n2)cc1O [CMS-121, 4-cyclopentyloxy-2-(3,4-dihydroxyphenyl) quinoline]	0.40	7			Emax (HT22 cells; Mus musculus): 86%; fold improvement of neuroprotective activity/potency relative to Fisetin (HT22 cells; in vitro ischemia, HT22/IAA): > 400 fold
Cc1cc2oc(-c3ccc(N4CCCC4)cc3)c(O)c(=O)c2cc1C [CMS-122, 3-hydroxy-6,7-dimethyl-2-(4-(pyrrolidin-1-yl)phenyl)-4H-chromen-4-one]	2.4	90			
O=c1c(O)c(-c2ccc(O)c(O)c2)oc2c1ccc1ccccc12 [CMS-040, 2-(3,4-dihydroxyphenyl)-3-hydroxy-4H-benzo[h]chromen-4-one]	2.4	90	67		fold enhancement of neuroprotective activity relative to CMS-04P (HT22 cells; in vitro ischemia, HT22/IAA): ~5.5 fold
Cc1cc(O)c(C(=O)/C=C/c2ccc(O)c(O)c2)cc1C [CMS-011, (E)-3-(3,4-dihydroxyphenyl)-1-(2-hydroxy-4,5-dimethylphenyl)prop-2-en-1-one]	2.7	50	62	50	EC50 (HT22 cells; [3]): 53 nM
O=C(/C=C/c1ccc(O)c(O)c1)O[C@@H]1C[C@](O)(C(=O)O)C[C@@H](O)[C@H]1O [Chlorogenic Acid, 1,3,4,5-tetrahydroxy-cyclohexanecarboxylic acid 3-(3,4-dihydroxycinnamate)]				5000	HT22 Cell IAA assay (maximal % protection) (HT22 cells; 20 μM IAA): 45%
COc1cc(-c2oc3cc(C)c(C)cc3c(=O)c2O)ccc1OCc1ccccc1 [CMS-059, 2-(4-(benzyloxy)-3-methoxyphenyl)-3-hydroxy-6,7-dimethyl-4H-chromen-4-one]	0.27	170	49	167	
COc1ccc(/C=C/C(=O)c2cc(C)c(C)cc2O)cc1OCc1ccccc1 [CMS-086, (E)-3-(3-(benzyloxy)-4-methoxyphenyl)-1-(2-hydroxy-4,5-dimethylphenyl)prop-2-en-1-one]	0.12				EC50 in vitro ischemia (μM) (HT22 cells; HT22 cells, 20 μM IAA for 2 hr, viability after 24 hr by MTT): no
O=c1cc(-c2ccccc2)oc2cc(O)c(O)c(O)c12 [Baicalein, 5,6,7-trihydroxyflavone, reference compound]				1500	HT22 Cell IAA assay (maximal % protection) (HT22 cells; 20 μM IAA): 85%; increase of survival over the neuroprotective concentration range (HT22 cells; HT22 cells): greater than 80%; neuroprotective concentration range (HT22 cells; HT22 cells): 2.5 to 10 µM
O=c1c(O)c(-c2ccc(N3CCCC3)c(O)c2)oc2c1ccc1ccccc12 [CMS-140, 3-hydroxy-2-(3-hydroxy-4-(pyrrolidin-1-yl)phenyl)-4H-benzo[h]chromen-4-one]	2.1	5			Emax (HT22 cells; Mus musculus): 89%; fold improvement of neuroprotective activity/potency relative to Fisetin (HT22 cells; in vitro ischemia, HT22/IAA): up to 600 fold
O=c1c(O)c(-c2ccc(O)c(O)c2)oc2cc(O)ccc12 [Fisetin, 3,7,3′,4′-Tetrahydroxyflavone, reference compound]	3	3000		3000	HT22 Cell IAA assay (maximal % protection) (HT22 cells; 20 μM IAA): 90%; increase of survival over the neuroprotective concentration range (HT22 cells; HT22 cells): greater than 85%; neuroprotective concentration range (HT22 cells; HT22 cells): 5 to 25 µM
CCOc1cc(-c2ccc(O)c(O)c2)nc2ccccc12 [CMS-023, 4-ethoxy-2-(3,4-dihydroxyphenyl) quinoline]	0.90	20	72	21	fold improvement of neuroprotective activity relative to CMS-007 (HT22 cells; in vitro ischemia, HT22/IAA): ~2 fold; fold improvement of neuroprotective activity/potency relative to Fisetin (HT22 cells; in vitro ischemia, HT22/IAA): ~140 fold
CN(C)c1ccc(-c2oc3c(ccc4ccccc43)c(=O)c2O)cc1 [CMS-118, 2-(4-(dimethylamino)phenyl)-3-hydroxy-4H-benzo[h]chromen-4-one]	0.93	40			Emax (HT22 cells; Mus musculus): 82%
O=C(/C=C/c1ccc(O)c(O)c1)c1ccc2ccccc2c1O [CMS-034, (E)-3-(3,4-dihydroxyphenyl)-1-(1-hydroxynaphthalen-2-yl)prop-2-en-1-one]	2.8	80	63	≤ 100	EC50 (HT22 cells; [3]): 79 nM; Emax (HT22 cells; Mus musculus): 81%
COc1cc(-c2oc3cc(C)c(C)cc3c(=O)c2O)ccc1O [CMS-069, 3-hydroxy-2-(4-hydroxy-3-methoxyphenyl)-6,7-dimethyl-4H-chromen-4-one]	1.89	40	67	< 40	EC50 (HT22 cells; [3]): 36 nM
CC(C)Oc1cc(-c2ccc(O)c(O)c2)nc2ccccc12 [CMS-024, 4-isopropoxy-2-(3,4-dihydroxyphenyl) quinoline]	0.18	20	72	21	fold improvement of neuroprotective activity relative to CMS-007 (HT22 cells; in vitro ischemia, HT22/IAA): ~2 fold
O=c1c(O)c(-c2ccc(O)c(O)c2)oc2ccccc12 [CMS-04P, reference compound]	2	500		500	fold improvement of neuroprotective activity/potency relative to Fisetin (HT22 cells; in vitro ischemia, HT22/IAA): ~6 fold
